Measurements as given in patent publication US12600701B2, “N-acylhydrazonic compounds, use in the treatment of amyloid and non-amyloid degenerative aggregopathies, and pharmaceutical composition” (FACULDADES CATÓLICAS, priority 2020, dated 2026).

Columns and labels:
[1] = rats, intraperitoneal injection, HPLC detection in brain; earlier work of the group; cited from earlier work
[2] = test system: mice with intracerebroventricular infusion of Aβ oligomers; details: earlier work of the group, cited from earlier work
[3] = Stability in aqueous solution containing 1% DMSO (UV-Vis absorption); type: physicochemical; details: 1% DMSO/water, 5×10^−5 mol L^−1, 17° C., over 4 days
Method: Stability in aqueous solution containing 1% DMSO: Compounds were prepared at low concentrations (5×10^−5 mol L^−1) in a solution containing 1% DMSO in ultra-pure water. Absorption spectra were obtained between 200 and 800 nm in a molecular absorption spectrophotometer at regular intervals over 12 hours. A final measurement was performed after four days. The room temperature was maintained at 17° C. throughout the experiment.

healthy rats = details: earlier work of the group; cited from earlier work
[4] = Experimental octanol-water partition coefficient (log P); type: physicochemical; details: octanol / Tris buffer 10^−2 mol L^−1 pH 7.4, 37° C., triplicate
Method: Tris buffer 10^−2 mol L^−1 pH 7.4 was used as the aqueous phase. Both phases were prepared separately, and contained the hydrazone of interest at low concentrations (5×10^−5 mol L^−1). An ultraviolet/visible molecular absorption spectrum was acquired for each of the phases before mixing. The mixture was stirred at 37° C., protected from light. At the end of the incubation, the mixture was centrifuged for 10 minutes at 3000 rpm, and the layers were separated using pipettes. The concentrations in each phase were measured at the wavelength of greatest absorption of each hydrazone in the respective solvent, through calibration curves. Each compound was analyzed in triplicate and P was calculated as the average concentration ratio Co/Ca where Co is the concentration in the organic phase and Ca in the aqueous phase.
Experimental results were obtained using buffer with physiological pH, and the mixing and separation steps were performed at average human body temperature. This gives the experiment greater biological relevance compared to computational calculations. Even so, the values determined are in agreement with those calculated.

[5] = test system: SynT-Sph1 aggregation in H4 cells; test: Cellular model of α-synuclein (SynT-Sph1) aggregation in H4 cells; type: cell-based, human
Method: The isoniazid-derived hydrazone of formula (IV) was evaluated in greater detail in a cellular model of α-synuclein aggregation in H4 cells. This model consists of the co-transfection of an α-synuclein construct containing the first 83 amino acids of the EGFP protein linked to its C-terminal portion (SynT) with the synphilin-1 protein (Sph1), resulting in positive inclusions for α-Syn which can be observed by fluorescence microscopy after immunostaining.

[6] = Affinity constant for copper(II), Method of Continuous Variations (Job plot); type: binding
Method: Affinity constant for copper(II): The affinity constant of compound (IV) for copper(II) was determined using the Method of Continuous Variations, which consists of preparing mixtures of different molar fractions of ligand and metal, followed by measuring their UV-Vis absorbance.
From this information it is possible to calculate the complex formation constant which, for the compound of formula (IV), has a value of 5.66±0.08 at 25° C.

In the case of `O=C(NN=Cc1ccc2cccc(O)c2n1)c1ccncc1` [INHHQ, 8-hydroxyquinoline-2-carboxaldehyde isonicotinoyl hydrazone], the “crossing of the blood-brain barrier” value [1] is listed as “capable of crossing the blood-brain barrier”, the “defensive responses related to fear and anxiety” value ([2]; healthy mice) is listed as “does not alter” and the “short- and long-term memory damage induced by Aβ oligomers” value ([2]; mice, intracerebroventricular infusion of Aβ oligomers) is listed as “capable of preventing”. For the same compound, the “decrease in the intensity of the hydrazonic band” value [3] was “approximately 12%” and the acute toxicity (healthy rats) was “non-toxic”.
Work on `Cn1ccnc1/C=N/NC(=O)c1ccccc1` [(V), 1-methyl-1H-imidazole-2-carboxaldehyde benzoyl hydrazone] yielded a logP [4] of 1.49 ± 0.13.
In the case of `Cn1ccnc1/C=N/NC(=O)c1ccncc1` [(IV), 1-methyl-1H-imidazole-2-carboxaldehyde isonicotinoyl hydrazone], the “levels of α-Syn expression” value [5] is reported as “does not change”, the “morphology of the aggregates” value ([5]; after treatment) is reported as “less compact after treatment” and the logP [4] is reported as 0.67 ± 0.03. The “complex formation constant with copper(II)” value ([6]; ML-type complex (1:1), 25° C.) was 5.66±0.08, the “formation constant compared with clioquinol” value ([6]; clioquinol under similar conditions) was “approximately one thousand times lower” and the “decrease in the intensity of the hydrazonic band” value [3] was “less than 2%”.
